The values below come from PMC9964323, “New Titanocene (IV) Dicarboxylates with Potential Cytotoxicity: Synthesis, Structure, Stability and Electrochemistry” (International Journal of Molecular Sciences, 2023).

A short description of data set [1]: Cyclic voltammetry (reduction potentials). Type of data set: physicochemical. The following applies: for Ered, first reduction potential: first value of cell; for Ered, first reduction potential / Ered, second reduction potential: DMF, 0.05 M Bu4NClO4, glass-carbon electrode, vs Ag/AgCl/KCl (sat.), 100 mV/s, C = 1 × 10^−1 mol L^−1; for Ered, second reduction potential: second value of cell. As to the method: It was shown that, as expected, the reduction potentials of Ti (IV) for all compounds depend on the structure of the carboxylate-containing ligand, in particular, the presence of donor and acceptor substituents in the ligand benzene ring (Table 3).
Cyclic Voltammetry experiments were conducted using an IPC Pro M potentiostat (Russia) with cyclic voltammetry (CV) and rotating disk electrode (RDE) techniques. Glass-carbon (d = 2 mm) disks were used as the working electrodes, 0.05 M Bu4NClO4 solution in DMF served as the supporting electrolyte, and Ag/AgCl/KCl (sat.) was used as the reference electrode. The potential scan rates were 100 mV/s. Samples were dissolved in the predeaerated solvent.

A short description of data set [2]: Stability in aqueous media (hydrolysis followed by optical absorption at 330 nm). The settings on record: 0.4 mM, 10% DMSO 90% water. Type of data set: physicochemical. From the text: The decrease in the concentration of the coordination compound was estimated from the decrease in the optical absorption at a wavelength of 330 nm. We considered it inappropriate to use the optical absorption maximum in the range of 230–300 nm for similar purposes because the absorption of the initial coordination compound, free carboxylate-containing ligands, and cyclopentadiene may overlap in this region.
Stability in aqueous media was studied by recording the full optical absorption spectra of solutions of the studied titanocene derivatives with an initial concentration of 0.4 mM in the solvent system (10% DMSO 90% water) at different time intervals. The change in the concentration of the studied compound was evaluated by the decrease in optical absorption at a wavelength of 330 nm. Full absorption spectra of studied compounds are presented as Figure S7 in the Supplementary Materials.

Data set [3] concerns Ehrlich ascites carcinoma. Further details: method as in PMID 111586. The following applies: cited from earlier work.
The test system of data set [4] is platinum-resistant cell lines. Further details: method as in PMID 8499130. The following applies: cited from earlier work.
Data set [5] relates to adenocarcinoma of the lung, breast, and gastrointestinal tract. Further details: method as in PMID 111586, PMID 7988618. The following applies: cited from earlier work.
Details of data set [6]: method as in PMID 9704729, PMID 9829732. The following applies: phase I clinical trials; cited from earlier work.
The subject of data set [7] is metastatic breast and colon tumors. The settings on record: phase II clinical trials, dose of 240 mg/m^2; cited from earlier work.

Entries after “also recorded” stand apart in the source; their conditions may differ.

Consider `O=C([O-])c1ccccc1.O=C([O-])c1ccccc1.[Ti+4].c1cc[cH-]c1.c1cc[cH-]c1` [2a, bis(η^5-cyclopentadienyl)bis(benzoato)titanium(IV)], for which, in data set [1], the “Ered, first reduction potential” value was −0.85 V and the “Ered, second reduction potential” value is −2.17 V.
For `[N-]=[N+]=Nc1ccc(C(=O)[O-])cc1.[N-]=[N+]=Nc1ccc(C(=O)[O-])cc1.[Ti+4].c1cc[cH-]c1.c1cc[cH-]c1` [2c, bis(η^5-cyclopentadienyl)bis(4-azidobenzoato)titanium(IV)] the same measures were −0.78 V and −2.01 V.
For `O=C([O-])c1cccc(F)c1.O=C([O-])c1cccc(F)c1.[Ti+4].c1cc[cH-]c1.c1cc[cH-]c1` [2d, bis(η^5-cyclopentadienyl)bis(3-fluorobenzoato)titanium(IV)] the same measures were −0.79 V and −2.05 V.
Consider `O=C([O-])c1c(F)c(F)c(F)c(F)c1F.O=C([O-])c1c(F)c(F)c(F)c(F)c1F.[Ti+4].c1cc[cH-]c1.c1cc[cH-]c1` [2e, bis(η^5-cyclopentadienyl)bis(pentafluorobenzoato)titanium(IV)], for which, in data set [2], the “half-life time in water” value is given as “approximately 3 h” and the “hydrolysis rate / stability in aqueous media” value (“hydrolysis rate / stability” below) is “hydrolyzed more slowly than compound 2b; also recorded: slower”. In addition, in data set [1], the “Ered, first reduction potential” value is listed as −0.57 V and the “Ered, second reduction potential” value was −1.81 V.
With `CC(=O)Oc1ccccc1C(=O)[O-].CC(=O)Oc1ccccc1C(=O)[O-].[Ti+4].c1cc[cH-]c1.c1cc[cH-]c1` [2f, bis(η^5-cyclopentadienyl)bis(2-acetoxybenzoato)titanium(IV)], in data set [1], the “Ered, first reduction potential” value was −0.81 V and the “Ered, second reduction potential” value is −2.11 V.
For `[Cl-].[Cl-].[Ti+4].c1cc[cH-]c1.c1cc[cH-]c1` [Cp2TiCl2, Titanocene dichloride], the cure in data set [3] (Ehrlich ascites carcinoma inoculated into mice) is given as 80%. For the same compound, the “side effects associated with drug toxicity” value in data set [3] (Ehrlich ascites carcinoma inoculated into xenograft mice) is on record as “no noticeable side effects”. Further, in data set [4], the “cytotoxicity” value is given as “pronounced cytotoxicity”. For the same compound, the “cytotoxicity” value in data set [5] was “pronounced cytotoxicity”. Further, the “hydrolysis rate / stability” value in data set [2] is given as “lower stability in aqueous media compared to the carboxylate-containing analogues”. Besides, the dose-dependent side effects result in data set [6] is “mild nephrotoxicity, fatigue, and bilierubinimia”. The therapeutic effect entry in data set [7] is “did not show a therapeutic effect”. Moreover, in data set [1], the “Ered, first reduction potential” value is on record as −0.62 V and the “Ered, second reduction potential” value was −1.85 V.
Take “bis(η^5-cyclopentadienyl)bis(4-benzoxybenzoato)titanium(IV) [2b]”: in data set [2], the “half-life time in water” value is “approximately 3 h”. In data set [1], the “Ered, first reduction potential” value is given as −0.88 V and the “Ered, second reduction potential” value is recorded as −2.21 V.
As for “bis(η^5-cyclopentadienyl)salicylatotitanium(IV) [2g]”, the “hydrolysis rate / stability” value in data set [2] is recorded as “Hydrolysis proceeds slowly”. For the same compound, the Reversibility of reduction entry in data set [1] (CV in DMF) was “reversibly reduced and oxidized and rev”. The “Ered, first reduction potential” value in data set [1] was −0.90 V.
